These results are taken from PubChem BioAssay (NCI).

Where “and” joins values, the source holds several entries; their conditions need not be identical. Equal entries are not always repeated.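 Grown in 96-well plates, cells were treated for 48 hours with each compound at five concentrations. Insufficient inhibition: endpoint recorded as highest concentration tested. GI50: concentration for 50% inhibition of growth. TGI is the concentration that stops growth completely.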

Among the test systems are U251 CNS; MALME-3M melanoma; SK-OV-3 ovarian; EKVX NSCLC; SF-539 CNS; SK-MEL-28 melanoma; HOP-62 NSCLC; OVCAR-4 ovarian; COLO 205 colon; RXF 393 renal.
Common to all, as to experiment: NCI-60 cell line screen, 48 h

`COC(=O)C1(O)CC(=O)CCC1c1ccc(OC)cc1` (configuration not stated): the TGI in the assay with U251 CNS, in the assay with MALME-3M melanoma, in the assay with SK-OV-3 ovarian, in the assay on EKVX NSCLC, with SF-539 CNS and in the assay with SK-MEL-28 melanoma was greater than 100 µM in each case. In addition, the TGI with HOP-62 NSCLC, with OVCAR-4 ovarian and in the assay with COLO 205 colon was greater than 100 µM throughout.

For `CCNC(=O)COc1ccc(Cl)cc1Cl`, the TGI in the assay with U251 CNS, in the assay on MALME-3M melanoma, with SK-OV-3 ovarian, in the assay with EKVX NSCLC, in the assay on SF-539 CNS and in the assay with SK-MEL-28 melanoma was greater than 100 µM each time. In addition, the TGI in the assay on HOP-62 NSCLC and in the assay with COLO 205 colon was greater than 100 µM throughout.

As for `N/N=C1\C(=O)N(CCc2ccccc2)C(=O)C1C(=O)NCCc1ccccc1` (configuration not stated), the TGI in the assay with U251 CNS, with MALME-3M melanoma, in the assay with SK-OV-3 ovarian, in the assay with EKVX NSCLC, with SF-539 CNS and in the assay with SK-MEL-28 melanoma was greater than 100 µM throughout.

For the compound `Cc1c(C(=O)O)oc2ccc([N+](=O)[O-])cc12`, the TGI in the assay with U251 CNS, in the assay on MALME-3M melanoma, in the assay on SK-OV-3 ovarian, in the assay on EKVX NSCLC, with SF-539 CNS and with SK-MEL-28 melanoma was greater than 100 µM in each case. Besides, the TGI in the assay with HOP-62 NSCLC, with OVCAR-4 ovarian and in the assay on COLO 205 colon was greater than 100 µM throughout.

In the case of `COc1cnc2c(c1)C(=O)c1c-2n(CCCN2CCN(C)CC2)c(=O)c2cc([N+](=O)[O-])ccc12`, the GI50 in the assay on U251 CNS is 0.165 µM; in the assay with SK-OV-3 ovarian, 1.8 µM; in the assay on EKVX NSCLC, 0.514 µM; in the assay on SF-539 CNS it was 0.191 µM; with RXF 393 renal, 11.4 µM; with HOP-62 NSCLC, 0.0813 µM. For the same compound, the GI50 was 1.46 µM in the assay with OVCAR-4 ovarian and 1.64 µM with COLO 205 colon. Also, the TGI with U251 CNS was found to be 0.386 µM; in the assay on SK-OV-3 ovarian, 3.59 µM; in the assay with EKVX NSCLC, 2.05 µM; in the assay on SF-539 CNS, 0.386 µM; in the assay on RXF 393 renal it was 30.4 µM; with HOP-62 NSCLC it was 0.392 µM. Besides, the results for the TGI in the assay with OVCAR-4 ovarian and with COLO 205 colon were 3.31 µM and 3.38 µM, respectively.

Regarding `CCC1=CC2CN(C1)Cc1c([nH]c3ccccc13)[C@@](C(=O)OC)(c1cc3c(cc1OC)N(C)[C@H]1[C@@](O)(C(=O)OC)[C@H](OC(C)=O)[C@]4(CC)C=CCN5CC[C@]31[C@@H]54)C2` (some centres not stated), the GI50 in the assay on U251 CNS is less than 0.005 µM; in the assay on MALME-3M melanoma, less than 0.005 µM; in the assay with EKVX NSCLC, 26.7 µM and 45.8 µM; in the assay with SF-539 CNS, 0.014 µM; in the assay on SK-MEL-28 melanoma, 0.0221 µM; in the assay on HOP-62 NSCLC, 0.0135 µM. For the same compound, the GI50 in the assay with OVCAR-4 ovarian was 0.0341 µM; with COLO 205 colon, 0.00763 µM. Besides, the TGI is 6.71 µM and 21 µM in the assay with U251 CNS; 8.68 µM in the assay on MALME-3M melanoma; 11.8 µM in the assay with SK-OV-3 ovarian; 50 µM and > 100 µM in the assay on EKVX NSCLC; 8.44 µM in the assay on SF-539 CNS; greater than 100 µM with SK-MEL-28 melanoma. The TGI in the assay on HOP-62 NSCLC was 43.8 µM; in the assay with OVCAR-4 ovarian, 50 µM and > 100 µM.

Regarding `C[C@H]1CCCC(O)C(O)[C@@H]2C[C@H](O[Si](C)(C)C(C)(C)C)C[C@H]2[C@H](O[Si](C)(C)C(C)(C)C)C(O)C(O)C(=O)O1` (some centres not stated), the GI50 was 12.7 µM with U251 CNS; 11.7 µM with MALME-3M melanoma; 54.6 µM in the assay with SK-OV-3 ovarian; 26.1 µM with EKVX NSCLC; 14.4 µM in the assay with SF-539 CNS; 31.8 µM with RXF 393 renal. Also, the figures for the GI50 with SK-MEL-28 melanoma, with HOP-62 NSCLC and in the assay on COLO 205 colon were 47.9 µM, 11 µM and greater than 100 µM, respectively. For the same compound, the TGI was 30.9 µM with U251 CNS; 35.2 µM with MALME-3M melanoma; greater than 100 µM with SK-OV-3 ovarian; 72.3 µM in the assay with EKVX NSCLC; 30.7 µM in the assay on SF-539 CNS; greater than 100 µM in the assay with RXF 393 renal. In addition, the TGI is greater than 100 µM in the assay with SK-MEL-28 melanoma, 27.6 µM with HOP-62 NSCLC and greater than 100 µM in the assay with COLO 205 colon.

Regarding `C[N+](C)(C)CC1CCCCC1O` (configuration not stated), the TGI with U251 CNS, with SK-OV-3 ovarian, with SF-539 CNS, in the assay on RXF 393 renal, with SK-MEL-28 melanoma and with HOP-62 NSCLC was greater than 100 µM each time. Moreover, the TGI in the assay on OVCAR-4 ovarian and in the assay on COLO 205 colon was greater than 100 µM each time.

For the compound `CCOC(=O)NC(=O)c1cn(CCN2CCN(C(=O)CCCCCCCCCCC(=O)N3CCN(CCn4cc(C(=O)NC(=O)OCC)c(=O)[nH]c4=O)CC3)CC2)c(=O)[nH]c1=O`, the TGI in the assay on U251 CNS, with MALME-3M melanoma, with SK-OV-3 ovarian, with SF-539 CNS, in the assay with SK-MEL-28 melanoma and in the assay on HOP-62 NSCLC was greater than 100 µM throughout. Further, the TGI in the assay with OVCAR-4 ovarian and with COLO 205 colon was greater than 100 µM each time.

For `COC(=O)C1(C(=O)OC)CC(=O)c2cc3c(cc2-c2c(cc(OC)c(OC)c2OC)C1)OCO3`, the TGI in the assay with U251 CNS, with MALME-3M melanoma, in the assay with SK-OV-3 ovarian, with EKVX NSCLC, in the assay on SF-539 CNS and in the assay on RXF 393 renal was greater than 211 µM throughout. Further, the TGI with SK-MEL-28 melanoma, in the assay on HOP-62 NSCLC and in the assay on COLO 205 colon was greater than 211 µM in each case.

Take `O=C(N/N=C/c1cccc(F)c1)c1ccncc1`: the TGI in the assay on U251 CNS, in the assay on MALME-3M melanoma, with SK-OV-3 ovarian, in the assay with RXF 393 renal, in the assay on SK-MEL-28 melanoma and in the assay on HOP-62 NSCLC was greater than 100 µM throughout. Also, the TGI with COLO 205 colon was greater than 100 µM.

For `Cc1ccc(NC(=O)c2cc(S(=O)(=O)N3C(=O)NC(=O)NS3(=O)=O)c(S)cc2Cl)cc1`, the GI50 with U251 CNS is 27.1 µM; in the assay with SK-OV-3 ovarian, 67.8 µM; with EKVX NSCLC, 29.5 µM; in the assay with SF-539 CNS, 27.6 µM; in the assay with RXF 393 renal, 11.5 µM; with SK-MEL-28 melanoma, 34.4 µM. The GI50 is 33.9 µM in the assay on HOP-62 NSCLC, 47.6 µM with OVCAR-4 ovarian and 39.8 µM in the assay on COLO 205 colon. Moreover, the TGI is greater than 100 µM in the assay on U251 CNS; greater than 100 µM with SK-OV-3 ovarian; 96.7 µM in the assay with EKVX NSCLC; 68 µM in the assay on SF-539 CNS; 54.5 µM with RXF 393 renal; greater than 100 µM in the assay on SK-MEL-28 melanoma. For the same compound, the TGI in the assay on HOP-62 NSCLC, with OVCAR-4 ovarian and in the assay with COLO 205 colon was greater than 100 µM throughout.
